# Measurements: article PMC9079931 (RSC Advances, 2018)
# Assays:
# [1] = cited from earlier work
# [2] = test system: human colon cancer cell line Caco-2; assay: In vitro cytotoxicity, MTT assay; type: cell-based; settings: Caco-2, 24 h, 0.001–100 μg ml^−1
# [3] = cited from earlier work; remark: listed apart in the source
# [4] = cited from earlier work; remark: listed apart in the source
Compound,Oral acute toxicity dose [1],Cell viability of Caco-2 cells versus concentration [2],Solubility of DIC in water [3],Acute toxicity [4]
OB(O)c1ccccc1 [phenylboronic acid],higher than 900 mg kg^−1 body weight,,,
"N#CC(c1ccc(Cl)cc1)c1c(Cl)cc(-n2ncc(=O)[nH]c2=O)cc1Cl (stereo not shown) [DIC, Diclazuril]",,gradually decreased with the increase of free drug concentration,0.69 µg/mL,low acute toxicity
